Results as given in publication PMC4668384 (Scientific Reports, 2015).
In brackets after ≈: the same amount, converted by molar mass. Where two headings read alike, the source gives them in different places.

How the values were obtained:
[1] = biological target: T1, truncated wild type VvCYP51 (Ustilaginoidea virens (Villosiclava virens), UniProt X2GGV8); test: UV-visible spectral binding assay, truncated wild type protein
T1 sequence (X2GGV8 29-528): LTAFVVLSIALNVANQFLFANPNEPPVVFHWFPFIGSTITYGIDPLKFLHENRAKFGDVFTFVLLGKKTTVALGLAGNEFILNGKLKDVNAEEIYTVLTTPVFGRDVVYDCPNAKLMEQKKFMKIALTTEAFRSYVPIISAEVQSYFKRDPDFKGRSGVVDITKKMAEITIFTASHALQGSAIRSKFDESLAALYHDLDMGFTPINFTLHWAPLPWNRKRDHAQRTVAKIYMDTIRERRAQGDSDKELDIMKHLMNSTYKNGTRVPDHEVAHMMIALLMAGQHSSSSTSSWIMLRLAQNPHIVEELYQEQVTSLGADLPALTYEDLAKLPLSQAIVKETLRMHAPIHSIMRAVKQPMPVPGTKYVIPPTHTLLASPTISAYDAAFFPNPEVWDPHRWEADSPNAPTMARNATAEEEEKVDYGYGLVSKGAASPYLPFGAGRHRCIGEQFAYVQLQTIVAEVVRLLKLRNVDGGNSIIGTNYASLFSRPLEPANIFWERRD

[2] = tested on: V. virens isolate FJ4-1b (wild type); test: Tebuconazole sensitivity, mycelial growth on amended PSA, wild type isolate; format: cell-based, Villosiclava virens; settings: Ustilaginoidea virens, 336 h, 28 °C, 14 days
Protocol: Mycelial plugs (6 mm) were transferred in triplicates from the margins of 14-day old colonies to 9 cm petri dishes containing nonamended or tebuconazole-amended PSA. Dishes were incubated at 28 °C for 14 days in darkness. The average colony diameter was measured in two perpendicular directions, and the EC50 value was determined by regressing percentage growth inhibition against the log of fungicide concentration.

[3] = tested on: VvCYP51 gene expression in isolate FJ4-1b; test: Induction of VvCYP51 gene expression by tebuconazole (real-time PCR); settings: 0.1 μg/ml tebuconazole for 6 h, versus untreated control
Protocol: The wild type isolates, mutant, and transformants were grown in 50 ml of PSB at 28 °C for 7 days on a 160 rpm orbital shaker. Total RNA was extracted from mycelia using the TRIzole reagent (Aidlab, Beijing, China), then digested with DNase I nuclease (Takara, Dalian, China) to remove DNA contamination. The cDNA was synthesized using a RevertAid First Strand cDNA Synthesis Kit employing the oligo(dT)18 primer (Thermo Fisher Scientific, Waltham, MA). The expression of the VvCYP51 gene was evaluated by real-time PCR using the primer pair RealCYP51-F/RealCYP51-R. Expression was normalized with the α-tubulin gene. Relative expression was calculated using the comparative Ct (2^−ΔΔCt) method[51]. […] Real-time PCR amplifications of VvCYP51 were performed in a CFX96 Real-Time PCR Detection System (Bio-Rad Laboratories Inc., Hercules, CA) using SYBR Green I fluorescent dye. Amplifications were conducted in a 20-μl volume containing 10 μl of SYBR qPCR Mix (Aidlab, Beijing, China), 1 μl of RT product and 0.2 μM of each primer. All samples were in triplicates with the following profile: an initial preheat at 95 °C for 2 min, followed by 40 cycles at 95 °C for 20 s, 60 °C for 20 s and 72 °C for 20 s. The entire experiment starting with RNA extractions was repeated four times.

[4] = tested on: V. virens pB-Vv51wt transformants (P-F); test: Tebuconazole sensitivity, mycelial growth on amended PSA, pB-Vv51wt transformants; format: cell-based, Villosiclava virens; settings: Ustilaginoidea virens

## CC(C)(C)C(O)(CCc1ccc(Cl)cc1)Cn1cncn1 (stereo not drawn) [tebuconazole]
[1]; bound for the three different truncated wild type VvCYP51 proteins, read-out: Kd values
  Kd: < 0.04 µM
[1]; wild type VvCYP51, −28aa N-terminal truncation, read-out: Kd
  Kd: 0.037 ± 0.0027 µM
[1]; wild type VvCYP51, −42aa N-terminal truncation, read-out: Kd
  Kd: 0.034 ± 0.0023 µM
[1]; wild type VvCYP51, −74aa N-terminal truncation, read-out: Kd
  Kd: 0.037 ± 0.0025 µM
[2]
  EC50: 0.04 mg/L (≈ 0.13 µM)
[3]
  increase of expression of VvCYP51 gene: 29.94 fold
[4]; 336 h, read-out: EC50 value, transformant P-F 4, mycelial growth on PSA, 28 °C, 14 days
  EC50: 0.11 mg/L (≈ 0.357 µM)
[4]; 336 h, read-out: EC50 value, transformant P-F 7, mycelial growth on PSA, 28 °C, 14 days
  EC50: 0.24 mg/L (≈ 0.78 µM)
[4]; 336 h, read-out: EC50 value, transformant P-F 8, mycelial growth on PSA, 28 °C, 14 days
  EC50: 0.13 mg/L (≈ 0.422 µM)
[4]; 336 h, read-out: EC50 value, transformant P-F 9, mycelial growth on PSA, 28 °C, 14 days
  EC50: 0.15 mg/L (≈ 0.487 µM)
[4]; 336 h, read-out: EC50 value, transformant P-F 10, mycelial growth on PSA, 28 °C, 14 days
  EC50: 0.12 mg/L (≈ 0.39 µM)
[4]; 336 h, read-out: EC50 value, transformant P-F 13, mycelial growth on PSA, 28 °C, 14 days
  EC50: 0.11 mg/L (≈ 0.357 µM)
[4]; 336 h, read-out: EC50 value, transformant P-F 14, mycelial growth on PSA, 28 °C, 14 days
  EC50: 0.28 mg/L (≈ 0.91 µM)
[4]; 336 h, read-out: EC50 value, transformant P-F 15, mycelial growth on PSA, 28 °C, 14 days
  EC50: 0.13 mg/L (≈ 0.422 µM)
[4]; 336 h, read-out: EC50 value, transformant P-F 16, mycelial growth on PSA, 28 °C, 14 days
  EC50: 0.13 mg/L (≈ 0.422 µM)
[4]; 336 h, read-out: EC50 value, transformant P-F 17, mycelial growth on PSA, 28 °C, 14 days
  EC50: 0.2 mg/L (≈ 0.65 µM)
[4]; 336 h, read-out: EC50 value, transformant P-F 20, mycelial growth on PSA, 28 °C, 14 days
  EC50: 0.27 mg/L (≈ 0.877 µM)
[4]; 336 h, read-out: EC50 value, transformant P-F 22, mycelial growth on PSA, 28 °C, 14 days
  EC50: 0.15 mg/L (≈ 0.487 µM)
[4]; 336 h, read-out: EC50 value, transformant P-F 23, mycelial growth on PSA, 28 °C, 14 days
  EC50: 0.2 mg/L (≈ 0.65 µM)
[4]; 336 h, read-out: EC50 value, transformant P-F 25, mycelial growth on PSA, 28 °C, 14 days
  EC50: 0.15 mg/L (≈ 0.487 µM)
[4]; 336 h, read-out: EC50 value, transformant P-F 26, mycelial growth on PSA, 28 °C, 14 days
  EC50: 0.18 mg/L (≈ 0.585 µM)
[4]; 336 h, read-out: EC50 value, transformant P-F 28, mycelial growth on PSA, 28 °C, 14 days
  EC50: 0.13 mg/L (≈ 0.422 µM)
[4]; 336 h, read-out: EC50 value, transformant P-F 29, mycelial growth on PSA, 28 °C, 14 days
  EC50: 0.26 mg/L (≈ 0.845 µM)
[4]; 336 h, read-out: EC50 value, transformant P-F 31, mycelial growth on PSA, 28 °C, 14 days
  EC50: 0.25 mg/L (≈ 0.812 µM)
[4]; 336 h, read-out: EC50 value, transformant P-F 32, mycelial growth on PSA, 28 °C, 14 days
  EC50: 0.32 mg/L (≈ 1.04 µM)
[4]; 336 h, read-out: EC50 value, transformant P-F 33, mycelial growth on PSA, 28 °C, 14 days
  EC50: 0.12 mg/L (≈ 0.39 µM)
[4]; 336 h, read-out: EC50 value, transformant P-F 34, mycelial growth on PSA, 28 °C, 14 days
  EC50: 0.15 mg/L (≈ 0.487 µM)
[4]; 336 h, read-out: EC50 value, transformant P-F 36, mycelial growth on PSA, 28 °C, 14 days
  EC50: 0.22 mg/L (≈ 0.715 µM)
[4]; 336 h, read-out: EC50 value, transformant P-F 37, mycelial growth on PSA, 28 °C, 14 days
  EC50: 0.11 mg/L (≈ 0.357 µM)
[4]; 336 h, read-out: EC50 value, transformant P-F 38, mycelial growth on PSA, 28 °C, 14 days
  EC50: 0.31 mg/L (≈ 1.01 µM)
[4]; 336 h, read-out: EC50 value, transformant P-F 39, mycelial growth on PSA, 28 °C, 14 days
  EC50: 0.13 mg/L (≈ 0.422 µM)
[4]; 336 h, read-out: EC50 value, transformant P-F 40, mycelial growth on PSA, 28 °C, 14 days
  EC50: 0.21 mg/L (≈ 0.682 µM)
[4]; read-out: EC50 values (range), range over the 26 pB-Vv51wt transformants
  EC50: 0.11 to 0.32 mg/L (≈ 0.357 to 1.04 µM)
